# In patent US6355799B1, “Substituted benzene compounds, process for their preparation, and herbicidal and defoliant compositions containing them” (ISK Americas Incorporated, priority 1997, dated 2002):
# How the values were obtained:
# Assay type in all cases: in vivo
# [1] = system: redroot pigweed (Amaranthus retroflexus, AMARE); experiment: Pre-emerge test, greenhouse herbicide activity screening; details: pre-emerge, rated 14 days after application, 0 = no damage, 100 = complete death
# How it was run: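 Compounds in acetone were track-sprayed at 15-1000 g ai/ha (187 l/ha) on sandy loam pots: pre-emerge one day after seeding, post-emerge at 2-3 leaf stage with 0.25% v/v non-ionic surfactant. Phytotoxicity was rated 14 days later on a 0 (no damage) to 100 (complete death) scale.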
# [2] = system: barnyardgrass (Echinochloa crus-galli, ECHCG); experiment: as above; details: pre-emerge, rated 14 days after application, 0 = no damage, 100 = complete death
# How it was run: (§1)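 Visual ratings on a 0-100 scale (0 no damage, 100 all plants dead) were taken at 14 days after treatment. Rates of 15-1000 g ai/ha in acetone, 187 l/ha, were sprayed onto soil one day after planting (pre-emerge) or onto 2-3 leaf plants with 0.25% v/v surfactant (post-emerge).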
# [3] = system: common ragweed (Ambrosia artemisizfolia L., AMBEL); experiment: as above; details: pre-emerge, rated 14 days after application, 0 = no damage, 100 = complete death
# How it was run: as §1
# [4] = system: green foxtail (Setaria viridis, SETVI); experiment: as above; details: pre-emerge, rated 14 days after application, 0 = no damage, 100 = complete death
# How it was run: as §1
# [5] = system: ivyleaf morningglory (Ipomoea hederacea, IPOHE); experiment: as above; details: pre-emerge, rated 14 days after application, 0 = no damage, 100 = complete death
# How it was run: as §1
# [6] = system: johnsongrass (Sorghum halepense, SORHA); experiment: as above; details: pre-emerge, rated 14 days after application, 0 = no damage, 100 = complete death
# How it was run: as §1
# [7] = system: lambsquarters (Chenopodium album, CHEAL); experiment: as above; details: pre-emerge, rated 14 days after application, 0 = no damage, 100 = complete death
# How it was run: as §1
# [8] = system: large crabgrass (Digitaria sanguinalis, DIGSA); experiment: as above; details: pre-emerge, rated 14 days after application, 0 = no damage, 100 = complete death
# How it was run: as §1
# [9] = system: sicklepod (Cassia obtusifolia, CASOB); experiment: as above; details: pre-emerge, rated 14 days after application, 0 = no damage, 100 = complete death
# How it was run: as §1
# [10] = system: velvetleaf (Abutilon theophrasti, ABUTH); experiment: as above; details: pre-emerge, rated 14 days after application, 0 = no damage, 100 = complete death
# How it was run: as §1
# [11] = system: field corn (Zea mays L., var. Dekalb 535, CORN); experiment: Pre-emerge test, crop safety; details: pre-emerge, rated 14 days after application, 0 = no damage, 100 = complete death
# How it was run: as §1
# [12] = system: upland rice (Oryza sp., var. Tebonnet, RICE); experiment: Pre-emerge test, crop safety; details: pre-emerge, rated 14 days after application, 0 = no damage, 100 = complete death
# How it was run: as §1
# [13] = system: barnyardgrass (Echinochloa crus-galli, ECHCG); experiment: Post-emerge test, greenhouse herbicide activity screening; details: phytotoxicity rating 0-100 (0 no damage, 100 complete death), 14 days after application
# How it was run: (§2)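 Herbicidal damage is scored 0 (none) to 100 (complete plant death) two weeks after a simulated field spray. Rates span 15–1000 g ai/ha, delivered in acetone at 187 l/ha. For post-emergence treatments, plants have 2–3 leaves and the spray carries 0.25% v/v non-ionic surfactant.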
# [14] = system: common ragweed (Ambrosia artemisizfolia L., AMBEL); experiment: as above; details: phytotoxicity rating 0-100 (0 no damage, 100 complete death), 14 days after application
# How it was run: as §2
# [15] = system: ivyleaf morningglory (Ipomoea hederacea, IPOHE); experiment: as above; details: phytotoxicity rating 0-100 (0 no damage, 100 complete death), 14 days after application
# How it was run: as §2
# [16] = system: johnsongrass (Sorghum halepense, SORHA); experiment: as above; details: phytotoxicity rating 0-100 (0 no damage, 100 complete death), 14 days after application
# How it was run: as §2
# [17] = system: lambsquarters (Chenopodium album, CHEAL); experiment: as above; details: phytotoxicity rating 0-100 (0 no damage, 100 complete death), 14 days after application
# How it was run: as §2
# [18] = system: large crabgrass (Digitaria sanguinalis, DIGSA); experiment: as above; details: phytotoxicity rating 0-100 (0 no damage, 100 complete death), 14 days after application
# How it was run: as §2
# [19] = system: redroot pigweed (Amaranthus retroflexus, AMARE); experiment: as above; details: phytotoxicity rating 0-100 (0 no damage, 100 complete death), 14 days after application
# How it was run: as §2
# [20] = system: sicklepod (Cassia obtusifolia, CASOB); experiment: as above; details: phytotoxicity rating 0-100 (0 no damage, 100 complete death), 14 days after application
# How it was run: as §2
# [21] = system: velvetleaf (Abutilon theophrasti, ABUTH); experiment: as above; details: phytotoxicity rating 0-100 (0 no damage, 100 complete death), 14 days after application
# How it was run: as §2
# [22] = system: field corn (Zea mays L., var. Dekalb 535, CORN); experiment: Post-emerge test, crop safety; details: phytotoxicity rating 0-100 (0 no damage, 100 complete death), 14 days after application
# How it was run: as §1
# [23] = system: upland rice (Oryza sp., var. Tebonnet, RICE); experiment: Post-emerge test, crop safety; details: phytotoxicity rating 0-100 (0 no damage, 100 complete death), 14 days after application
# How it was run: as §1
structure (smiles),measurement,setting,value
CCc1ccc(C(=O)Nc2c(OC)c(Cl)cc(F)c2-n2c(=O)cc(C(F)(F)F)n(C)c2=O)cc1 [2-27],"Pre-emerge Herbicidal Activity AMARE (phytotoxicity rating, scale 0-100)",[1]; 63 g ai/ha,100
same,"Pre-emerge Herbicidal Activity AMARE (phytotoxicity rating, scale 0-100)",[1]; 250 g ai/ha,100
same,"Pre-emerge Herbicidal Activity ECHCG (phytotoxicity rating, scale 0-100)",[2]; 63 g ai/ha,50
same,"Pre-emerge Herbicidal Activity ECHCG (phytotoxicity rating, scale 0-100)",[2]; 250 g ai/ha,100
same,"Pre-emerge Herbicidal Activity AMBEL (phytotoxicity rating, scale 0-100)",[3]; 63 g ai/ha,100
same,"Pre-emerge Herbicidal Activity AMBEL (phytotoxicity rating, scale 0-100)",[3]; 250 g ai/ha,100
same,"Pre-emerge Herbicidal Activity SETVI (phytotoxicity rating, scale 0-100)",[4]; 63 g ai/ha,100
same,"Pre-emerge Herbicidal Activity SETVI (phytotoxicity rating, scale 0-100)",[4]; 250 g ai/ha,100
same,"Pre-emerge Herbicidal Activity IPOHE (phytotoxicity rating, scale 0-100)",[5]; 63 g ai/ha,80
same,"Pre-emerge Herbicidal Activity IPOHE (phytotoxicity rating, scale 0-100)",[5]; 250 g ai/ha,100
same,"Pre-emerge Herbicidal Activity SORHA (phytotoxicity rating, scale 0-100)",[6]; 63 g ai/ha,30
same,"Pre-emerge Herbicidal Activity SORHA (phytotoxicity rating, scale 0-100)",[6]; 250 g ai/ha,80
same,"Pre-emerge Herbicidal Activity CHEAL (phytotoxicity rating, scale 0-100)",[7]; 63 g ai/ha,100
same,"Pre-emerge Herbicidal Activity CHEAL (phytotoxicity rating, scale 0-100)",[7]; 250 g ai/ha,100
same,"Pre-emerge Herbicidal Activity DIGSA (phytotoxicity rating, scale 0-100)",[8]; 63 g ai/ha,95
same,"Pre-emerge Herbicidal Activity DIGSA (phytotoxicity rating, scale 0-100)",[8]; 250 g ai/ha,100
same,"Pre-emerge Herbicidal Activity CASOB (phytotoxicity rating, scale 0-100)",[9]; 63 g ai/ha,60
same,"Pre-emerge Herbicidal Activity CASOB (phytotoxicity rating, scale 0-100)",[9]; 250 g ai/ha,100
same,"Pre-emerge Herbicidal Activity ABUTH (phytotoxicity rating, scale 0-100)",[10]; 63 g ai/ha,100
same,"Pre-emerge Herbicidal Activity ABUTH (phytotoxicity rating, scale 0-100)",[10]; 250 g ai/ha,100
same,"Pre-emerge crop damage CORN (phytotoxicity rating, scale 0-100)",[11]; 63 g ai/ha,20
same,"Pre-emerge crop damage CORN (phytotoxicity rating, scale 0-100)",[11]; 250 g ai/ha,90
same,"Pre-emerge crop damage RICE (phytotoxicity rating, scale 0-100)",[12]; 63 g ai/ha,70
same,"Pre-emerge crop damage RICE (phytotoxicity rating, scale 0-100)",[12]; 250 g ai/ha,90
same,Post-emerge Herbicidal Activity ECHCG,[13]; 63 g ai/ha,0
same,Post-emerge Herbicidal Activity ECHCG,[13]; 250 g ai/ha,80
same,Post-emerge Herbicidal Activity AMBEL,[14]; 63 g ai/ha,60
same,Post-emerge Herbicidal Activity AMBEL,[14]; 250 g ai/ha,90
same,Post-emerge Herbicidal Activity IPOHE,[15]; 63 g ai/ha,90
same,Post-emerge Herbicidal Activity IPOHE,[15]; 250 g ai/ha,100
same,Post-emerge Herbicidal Activity SORHA,[16]; 63 g ai/ha,20
same,Post-emerge Herbicidal Activity SORHA,[16]; 250 g ai/ha,85
same,Post-emerge Herbicidal Activity CHEAL,[17]; 63 g ai/ha,90
same,Post-emerge Herbicidal Activity CHEAL,[17]; 250 g ai/ha,100
same,Post-emerge Herbicidal Activity DIGSA,[18]; 63 g ai/ha,10
same,Post-emerge Herbicidal Activity DIGSA,[18]; 250 g ai/ha,70
same,Post-emerge Herbicidal Activity AMARE,[19]; 63 g ai/ha,100
same,Post-emerge Herbicidal Activity AMARE,[19]; 250 g ai/ha,100
same,Post-emerge Herbicidal Activity CASOB,[20]; 63 g ai/ha,50
same,Post-emerge Herbicidal Activity CASOB,[20]; 250 g ai/ha,90
same,Post-emerge Herbicidal Activity ABUTH,[21]; 63 g ai/ha,100
same,Post-emerge Herbicidal Activity ABUTH,[21]; 250 g ai/ha,100
same,Post-emerge Herbicidal Activity CORN (crop damage),[22]; 63 g ai/ha,50
same,Post-emerge Herbicidal Activity CORN (crop damage),[22]; 250 g ai/ha,95
same,Post-emerge Herbicidal Activity RICE (crop damage),[23]; 63 g ai/ha,60
same,Post-emerge Herbicidal Activity RICE (crop damage),[23]; 250 g ai/ha,95
